Data: article PMC5025651, “Reprofiled anthelmintics abate hypervirulent stationary-phase Clostridium difficile” (Scientific Reports, 2016)
Values after ≈ are worked out from the molar mass of the structure shown. Counter-ions that a name gives are not always drawn.

What was measured:
C. difficile strain 4118 [1] = experiment: Time-kill kinetics against stationary-phase cultures; assay type: cell-based, Clostridium difficile; details: for log decrease in the number of CFUs: 4 × MIC, 24 h; for log decrease in the number of CFUs / time to eradicate >99.9% of viable cells: stationary-phase CD4118; for time to eradicate >99.9% of viable cells: 16× MIC (rafoxanide 2 μg/mL, closantel 4 μg/mL, compound 8 1 μg/mL); for log killing of CD4118 stationary-phase cells: 16× MIC (metronidazole 4 μg/mL, vancomycin 32 μg/mL), up to 24 h
Protocol: At t = 0, 3, 6 and 24 h, sample aliquots were withdrawn from the treated cultures and bacterial viability was scored by plating serial dilutions on BHIS agar plates. The agar plates were incubated in the anaerobic chamber for 20–24 h at 37 °C. Kinetic experiments were performed at least twice.

C. sporogenes ATCC 15579 = experiment: MIC by broth microdilution; assay type: cell-based; details: Clostridium sporogenes, ATCC15579, BHIS, anaerobic, duplicate
[2] = ruminants; cited from earlier work
[3] = tested on: C. difficile strain 630 (CD630, ATCC BAA-1382-FZ, ribotype 012); experiment: MIC by broth microdilution; assay type: cell-based, Clostridium difficile
Sheep red blood cells = experiment: Hemolysis assay; assay type: cell-based; details: tested at 32 μg/mL, sheep erythrocytes
How it was run: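 PBS-washed sheep erythrocytes (3% suspension, pH 7.4) were exposed to compound at 32 μg/mL final for 1 h at 37 °C. After centrifugation, supernatant absorbance at 540 nm was read against 1% Triton X-100 (full lysis) and 0.5% DMSO in PBS. Triplicate.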

HEK 293T/17 cells = experiment: In vitro cytotoxicity, MTS assay; assay type: cell-based, human; details: HEK 293T/17, MTS; for in vitro toxicity compared with niclosamide (in words): 0.125–32 μg/mL
Protocol: (§1) Cell lines Hep G2 [HEPG2] (ATCC® HB-8065^TM) and 293T/17 [HEK 293T/17] (ATCC® CRL-11268^TM) were purchased from ATCC and cultured according to manufacturer’s instructions. HEPG2 or HEK 293T/17 cells were cultured in 96-well plates, and incubated at 37 °C in a 5% CO2 humidifying chamber for 24 h. Cells were then treated with test compounds at concentrations ranging from 0.125–32 μg/mL, and an MTS assay was performed at 16-h post-incubation at 37 °C in a 5% CO2 humidifying chamber, using the CellTiter 96 aqueous non-radioactive cell proliferation assay kit (Promega, Madison, WI, USA) per manufacturer’s instructions. MTS assays were performed in duplicate.

HepG2 cells = experiment: In vitro cytotoxicity, MTS assay; assay type: cell-based, human; details: for in vitro toxicity compared with niclosamide (in words): 0.125–32 μg/mL
Protocol: as §1

C. difficile strain 4118 [4] = experiment: Serial passage experiments (resistance development); assay type: cell-based, Clostridium difficile; details: after 21 serial passages of CD4118 at 0.5 × MIC
Protocol: C. difficile strain 4118 serial passages were performed in BHIS containing 0.03% L-cysteine, using the broth microdilution method. The MIC for each compound was first determined according to the procedure detailed above. […] Serial passage experiments were performed in duplicate.

[5] = tested on: panel of obligate aerobes, facultative anaerobes and obligate anaerobes; experiment: Antibacterial spectrum, MIC against a panel of bacteria; assay type: cell-based; details: ratio of MIC values

SMILES | log decrease in the number of CFUs (C. difficile strain 4118 [1]) | time to eradicate >99.9% of viable cells (C. difficile strain 4118 [1]) | MIC (C. sporogenes ATCC 15579) | excreted unchanged in the feces [2] | MIC C. difficile 630 ([3]; BHIS broth, anaerobic, 20–24 h, n = 2) | decrease in MIC relative to 5g ([3]; CD630 and CD4118 (Table 2)) | MIC ([3]; Clostridioides difficile, ATCCBAA1382, BHIS broth, anaerobic, 20–24 h, n = 2) | rupture of red blood cells (in words) (Sheep red blood cells) | in vitro toxicity compared with niclosamide (in words) (HEK 293T/17 cells) | in vitro toxicity compared with niclosamide (in words) (HepG2 cells; HepG2, MTS) | log killing of CD4118 stationary-phase cells (C. difficile strain 4118 [1]) | final MIC relative to initial (pre-passage) MIC (C. difficile strain 4118 [4]) | concentration with no apparent effect on cell viability (HEK 293T/17 cells; 16 h) | no-effect concentration on mammalian cell viability relative to MIC values against C. difficile (HepG2 cells; 8 μg/mL, HepG2 and HEK 293T/17) | concentration with no apparent effect on cell viability (HepG2 cells; HepG2, MTS, 16 h) | selectivity for C. difficile over Bifidobacterium/Lactobacillus strains and Gram-negative gut commensals (Bacteroides species) [5]
Cc1cc(C(C#N)c2ccc(Cl)cc2)c(Cl)cc1NC(=O)c1cc(I)cc(I)c1O (centres unmarked) [Closantel] | 2.2 log | 24 h | 1 µg/mL (≈ 1.51 µM) | ≤ 90% | – | – | – | – | – | – | – | – | – | – | – | –
O=C(Nc1ccc(Oc2ccc(Cl)cc2)cc1)c1cc(Cl)cc(Cl)c1O [Compound 8] | 2.4 log | 24 h | 4 µg/mL (≈ 9.79 µM) | – | 0.03 µg/mL (≈ 0.0734 µM) | 4 fold | 0.03 µg/mL (≈ 0.0734 µM) | did not cause rupture of red blood cells | lower in vitro toxicities | lower in vitro toxicities | – | – | – | – | – | –
Cc1ncc([N+](=O)[O-])n1CCO [Metronidazole, metronidazole] | – | – | 0.25 µg/mL (≈ 1.46 µM) | – | – | – | – | – | – | – | < 3 log | ~ 2 fold | – | – | – | –
O=C(Nc1ccc(Oc2ccc(Cl)cc2)c(Cl)c1)c1cc(I)cc(I)c1O [Rafoxanide, rafoxanide] | 2.7 log | 6 h | 1 µg/mL (≈ 1.6 µM) | – | – | – | – | did not cause rupture of red blood cells | lower in vitro toxicities | lower in vitro toxicities | – | – | ≥ 8000 ng/mL | ≥ 64 fold | ≥ 8000 ng/mL | ≥ 32 fold
CN[C@H](CC(C)C)C(=O)N[C@H]1C(=O)N[C@@H](CC(N)=O)C(=O)N[C@H]2C(=O)N[C@H]3C(=O)N[C@H](C(=O)N[C@H](C(=O)O)c4cc(O)cc(O)c4-c4cc3ccc4O)[C@H](O)c3ccc(c(Cl)c3)Oc3cc2cc(c3O[C@@H]2O[C@H](CO)[C@@H](O)[C@H](O)[C@H]2O[C@H]2C[C@](C)(N)[C@H](O)[C@H](C)O2)Oc2ccc(cc2Cl)[C@H]1O [Vancomycin, vancomycin hydrochloride hydrate] | – | – | 2 µg/mL | – | – | – | – | – | – | – | < 3 log | ~ 2 fold | – | – | – | –
